Our source for the EC50 values is patent US12180226B2, “Spirotricycle RIPK1 inhibitors and methods of uses thereof” (Merck Sharp & Dohme LLC, priority 2021, dated 2024).

Molecules are shown by their SMILES. Counter-ions that a name gives are not always drawn.

For the test, the target named is RIPK1 (recombinant GST-RIPK1 kinase domain, residues 1-327) (Homo sapiens (Human), UniProt Q13546). As to the kind of experiment: RIPK1-ADP-Glo Enzymatic Assay. It is filed as biochemical. The conditions noted are these: ADP-Glo; 25 nM GST-RIPK1, 300 μM ATP; assay lower limit ~25 nM; read-out: RIPK1 V0 Ec50. A digest of the protocol:
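Luminescent ADP-Glo readout of ATP-to-ADP conversion. Conditions: 25 nM enzyme, 300 μM ATP, 3 μM dephospho-MBP, pH 7.3 HEPES buffer with 20 mM MgCl2; 30 min compound pre-incubation, 150 min reaction. EC50 via four-parameter sigmoidal regression; assay floor ~25 nM.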

Sequence of RIPK1 (recombinant GST-RIPK1 kinase domain, residues 1-327) (Q13546 1-327): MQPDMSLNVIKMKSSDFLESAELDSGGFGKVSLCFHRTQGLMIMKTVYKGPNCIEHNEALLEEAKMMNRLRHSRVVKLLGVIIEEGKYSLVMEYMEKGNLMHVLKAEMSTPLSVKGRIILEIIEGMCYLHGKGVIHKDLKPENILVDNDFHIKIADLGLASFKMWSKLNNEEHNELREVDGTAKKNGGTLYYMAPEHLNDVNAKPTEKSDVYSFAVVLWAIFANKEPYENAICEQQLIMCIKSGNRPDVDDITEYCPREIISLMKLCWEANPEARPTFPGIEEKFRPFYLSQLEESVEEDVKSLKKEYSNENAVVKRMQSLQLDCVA

On to `O=C1N2[C@H](CC13CCN(c1cc(F)ccn1)CC3)OC[C@H]2c1ccccc1` [Example 11.2, (3′R,7a′S)-1-(4-fluoropyridin-2-yl)-3′-phenyltetrahydro-5′H-spiro[piperidine-4,6′-pyrrolo[2,1-b][1,3]oxazol]-5′-one], for which the EC50 was found to be 0.295 µM.
For `O=C1N2[C@@H](CC[C@H]2c2ccccc2)OC12CCN(c1cc(F)ccn1)CC2` [Example 4.14, (5′S,7a′R)-1-(4-fluoropyridin-2-yl)-5′-phenyltetrahydro-3′H-spiro[piperidine-4,2′-pyrrolo[2,1-b] [1,3]oxazol]-3′-one] the value was less than 0.025 µM.
For `CN(C)c1cccc(C(=O)N2CCC3(CC2)O[C@@H]2CC[C@@H](c4cccc(F)c4)N2C3=O)c1` [Example 6.124, (5′S,7a′R)-1-[3-(dimethylamino)-benzene-1-carbonyl]-5′-(3-fluorophenyl) tetrahydro-3′H-spiro [piperidine-4,2′-pyrrolo[2,1-b][1,3]-oxazol]-3′-one] the value was less than 0.025 µM.
As for `O=C1N2[C@@H](CC[C@H]2c2ccccc2)OC12CCN(c1cc(-n3ccnc3)ncn1)CC2` [Example 4.171, (5′S,7a′R)-1-[6-(1H-imidazol-1-yl)pyrimidin-4-yl]-5′-phenyltetrahydro-3′H-spiro[piperidine-4,2′-pyrrolo[2,1-b] [1,3]oxazol]-3′-one], the figure is less than 0.025 µM; as for `O=C(c1cc(F)ccc1F)N1CCC2(O[C@@H]3CC[C@@H](c4ccccc4)N3C2=O)C(F)C1` (stereo partly drawn) [Example 6.112], less than 0.025 µM; as for `O=C(c1cc(F)ccc1F)N1CCC2(CC1)O[C@@H]1CC[C@@H](c3cccc(F)c3)N1C2=O` [Example 1.6, (5′S,7a′R)-1-(2,5-difluorobenzene-1-carbonyl)-5′-(3-fluorophenyl)tetrahydro-3′H-spiro[piperidine-4,2′-pyrrolo[2,1-b] [1,3]oxazol]-3′-one], less than 0.025 µM.
Regarding `O=C1N2[C@@H](CC[C@H]2c2cc(F)cc(F)c2)OC12CN(c1ccnc3ccnn13)C2` [Example 4.134, (5′S,7a′R)-5′-(3,5-difluorophenyl)-1-(pyrazolo[1,5-a]pyrimidin-7-yl)tetrahydro-3′H-spiro[azetidine-3,2′-pyrrolo[2,1-b] [1,3]oxazol]-3′-one], the 50% effective concentration (EC50) worked out at 0.0273 µM.
As for `Cc1nc(N2CCC3(CC2)O[C@@H]2CC[C@@H](c4ccccc4)N2C3=O)ncc1-c1cnoc1` [Example 21.9, (5′S,7a′R)-1-[4-methyl-5-(1,2-oxazol-4-yl)pyrimidin-2-yl]-5′-phenyltetrahydro-3′H-spiro[piperidine-4,2′-pyrrolo[2,1-b][1,3]oxazol]-3′-one], the figure is 0.0378 µM; as for `O=C(c1noc2c1CCCC2)N1CCC2(CC1)O[C@@H]1CC[C@@H](c3cc(F)cc(F)c3)N1C2=O` [Example 6.17, (5′S,7a′R)-5′-(3,5-difluorophenyl)-1-(4,5,6,7-tetrahydro-1,2-benoxazole-3-carbonyl)tetrahydro-3′H-spiro[piperidine-4,2′-pyrrolo[2,1-b] [1,3]oxazol]-3′-one], 0.173 µM; as for `N#Cc1cnc(N2CCC3(CC2)O[C@@H]2CC[C@@H](c4cc(F)cc(F)c4)N2C3=O)nc1` [Example 4.76, 2-[(5′S,7a′R)-5′-(3,5-difluorophenyl)-3′-oxotetrahydro-1H,3′H-spiro[piperidine-4,2′-pyrrolo[2,1-b] [1,3]oxazol]-1-yl]pyrimidine-5-carbonitrile], 0.0382 µM.
As for `COC(=O)c1c(C)cc(N2CCC3(CC2)O[C@@H]2CC[C@@H](c4ccccc4)N2C3=O)nc1C#N` [Example 4.192, methyl 2-cyano-4-methyl-6-[(5′S,7a′R)-3′-oxo-5′-phenyltetrahydro-1H,3′H-spiro[piperidine-4,2′-pyrrolo[2,1-b] [1,3]oxazol]-1-yl] pyridine-3-carboxylate], the figure is 0.0544 µM; as for `O=C1N2[C@@H](CC[C@H]2c2cc(F)cc(F)c2)OC12CCN(c1ncnc3c(F)cnn13)CC2` [Example 4.250, (5′S,7a′R)-5′-(3,5-difluorophenyl)-1-(8-fluoropyrazolo[1,5-a] [1,3,5]triazin-4-yl)tetrahydro-3′H-spiro[piperidine-4,2′-pyrrolo[2,1-b] [1,3]oxazol]-3′-one], less than 0.025 µM.
`N#Cc1ccc(N2CCC3(CC2)OC2CCC(c4cnccn4)N2C3=O)n2ncnc12` (stereo not drawn) [Example 4.141, 5-[3′-oxo-5′-(pyrazin-2-yl)tetrahydro-1H,3′H-spiro[piperidine-4,2′-pyrrolo[2,1-b] [1,3]oxazol]-1-yl][1,2,4]triazolo[1,5-a] pyridine-8-carbonitrile]: the concentration for a half-maximal effect (EC50) was less than 0.025 µM.
For `O=C1N2[C@@H](CC[C@H]2c2ccccc2F)OC12CN(Cc1ccccc1)C2` [Example 22.7, (5′S,7a′R)-1-benzyl-5′-(2-fluorophenyl)tetrahydro-3′H-spiro[azetidine-3,2′-pyrrolo[2,1-b][1,3]oxazol]-3′-one] the value was 0.103 µM; for `N#Cc1cc(N2CCC3(CC2)SC2CCC(c4cc(F)cc(F)c4)N2C3=O)ncn1` (stereo not drawn) [Example 4.111, 6-(5′-(3,5-difluorophenyl)-3′-oxotetrahydro-3′H-spiro[piperidine-4,2′-pyrrolo[2,1-b]thiazol]-1-yl)pyrimidine-4-carbonitrile], 0.0381 µM.
For `O=C(c1ccccc1)N1CCC2(CC1)O[C@@H]1CC[C@@H](c3cnccn3)N1C2=O` [Example 17.1, (5′S,7a′R)-1-benzoyl-5′-(pyrazin-2-yl)tetrahydro-3′H-spiro[piperidine-4,2′-pyrrolo[2,1-b]oxazol]-3′-one, TFA], the EC50 was found to be 0.0344 µM.
As for `CSc1cc(N2CCC3(CC2)O[C@@H]2CC[C@@H](c4cc(F)cc(F)c4)N2C3=O)ncc1C#N` [Example 4.71, 6-[(5′S,7a′R)-5′-(3,5-difluorophenyl)-3′-oxotetrahydro-1H,3′H-spiro[piperidine-4,2′-pyrrolo[2,1-b] [1,3]oxazol]-1-yl]-4-(methylsulfanyl)pyridine-3-carbonitrile], the figure is 0.0303 µM.
Regarding `COc1cccc([C@@H]2CC[C@H]3OC4(CCN(C(=O)c5ccccc5)CC4)C(=O)N32)n1` [Example 17.5, (5′S,7a′R)-1-benzoyl-5′-(6-methoxypyridin-2-yl)tetrahydro-3′H-spiro[piperidine-4,2′-pyrrolo[2,1-b]oxazol]-3′-one, TFA salt], the 50% effective concentration (EC50) was determined as 0.344 µM.
For `Cc1oncc1C(=O)N1CCC2(CC1)O[C@@H]1CC[C@@H](c3cc(F)cc(F)c3)N1C2=O` [Example 6.60, (5′S,7a′R)-5′-(3,5-difluorophenyl)-1-(5-methyl-1,2-oxazole-4-carbonyl)tetrahydro-3′H-spiro[piperidine-4,2′-pyrrolo[2,1-b] [1,3]oxazol]-3′-one] the value was 0.095 µM; for `CCc1ccnc(C(=O)N2CCC3(CC2)O[C@@H]2CC[C@@H](c4cc(F)cc(F)c4)N2C3=O)c1` [Example 6.79, (5′S,7a′R)-5′-(3,5-difluorophenyl)-1-(4-ethylpyridine-2-carbonyl)tetrahydro-3′H-spiro[piperidine-4,2′-pyrrolo[2,1-b][1,3]oxazol]-3′-one], 0.0383 µM.
In the case of `Cc1ccc([C@@H]2CC[C@H]3OC4(CCN(C(=O)c5ccccc5)CC4)C(=O)N32)cc1` [Example 17.3, (5′S,7a′R)-1-benzoyl-5′-(p-tolyl)tetrahydro-3′H-spiro[piperidine-4,2′-pyrrolo[2,1-b]oxazol]-3′-one], the EC50 was less than 0.025 µM.
For `N#Cc1ccc(N2CCC3(CC2)O[C@@H]2CC[C@@H](c4cc(F)cc(F)c4)N2C3=O)n2nccc12` [Example 14.1, 7-((5′S,7a′R)-5′-(3,5-difluorophenyl)-3′-oxotetrahydro-3′H-spiro [piperidine-4,2′-pyrrolo [2,1-b]oxazol]-1-yl)pyrazolo[1,5-a]pyridine-4-carbonitrile, TFA] the value was less than 0.025 µM.
As for `O=C(c1cccc2c1CCC2)N1CCC2(CC1)O[C@@H]1CC[C@@H](c3cc(F)cc(F)c3)N1C2=O` [Example 5.29, (5′S,7a′R)-5′-(3,5-difluoro-phenyl)-1-(2,3-dihydro-1H-indene-4-carbonyl)-tetrahydro-3′H-spiro [piperidine-4,2′-pyrrolo-[2,1-b]oxazol]-3′-one], the figure is 0.0622 µM; as for `COc1nc(N2CCC3(CC2)O[C@@H]2CC[C@@H](c4cc(F)cc(F)c4)N2C3=O)ncc1Cl` [Example 4.62, (5′S,7a′R)-1-(5-chloro-4-methoxypyrimidin-2-yl)-5′-(3,5-difluorophenyl)tetrahydro-3′H-spiro[piperidine-4,2′-pyrrolo[2,1-b] [1,3]oxazol]-3′-one], 0.0392 µM.
As for `O=C(c1nc(N2CCC3(CC2)O[C@@H]2CC[C@@H](c4cc(F)cc(F)c4)N2C3=O)ncc1F)N1CC(F)C1` [Example 7.7, (5′S,7a′R)-5′-(3,5-difluorophenyl)-1-[5-fluoro-4-(3-fluoroazetidine-1-carbonyl)pyrimidin-2-yl]tetrahydro-3′H-spiro[piperidine-4,2′-pyrrolo[2,1-b][1,3]oxazol]-3′-one], the figure is less than 0.025 µM; as for `CCOC(=O)c1ccc(N2CCC3(CC2)O[C@@H]2CC[C@@H](c4ccccc4)N2C3=O)nc1` [Example 4.200, ethyl 6-[(5′S,7a′R)-3′-oxo-5′-phenyltetrahydro-1H,3′H-spiro[piperidine-4,2′-pyrrolo[2,1-b] [1,3]oxazol]-1-yl]pyridine-3-carboxylate], 0.0525 µM; as for `O=C1N2[C@@H](CC[C@H]2c2ccccc2)OC12CCN(c1nc3ccncc3o1)CC2` [Example 4.158, (5′S,7a′R)-1-([1,3]oxazolo[5,4-c]pyridin-2-yl)-5′-phenyltetrahydro-3′H-spiro[piperidine-4,2′-pyrrolo[2,1-b] [1,3]oxazol]-3′-one], 0.0508 µM.
